The results in this text go back to patent US10745384B2, “Indazole derivatives as αv integrin antagonists” (BRISTOL-MYERS SQUIBB COMPANY, priority 2016, dated 2020).

Counter-ions that a name gives are not always drawn.

This assay deals with T1, human αVβ6 (Homo sapiens, UniProt P06756+P18564).
T1 construct: purchased R & D systems 3817-AV
T1 sequence (P06756 31-992 limits assumed): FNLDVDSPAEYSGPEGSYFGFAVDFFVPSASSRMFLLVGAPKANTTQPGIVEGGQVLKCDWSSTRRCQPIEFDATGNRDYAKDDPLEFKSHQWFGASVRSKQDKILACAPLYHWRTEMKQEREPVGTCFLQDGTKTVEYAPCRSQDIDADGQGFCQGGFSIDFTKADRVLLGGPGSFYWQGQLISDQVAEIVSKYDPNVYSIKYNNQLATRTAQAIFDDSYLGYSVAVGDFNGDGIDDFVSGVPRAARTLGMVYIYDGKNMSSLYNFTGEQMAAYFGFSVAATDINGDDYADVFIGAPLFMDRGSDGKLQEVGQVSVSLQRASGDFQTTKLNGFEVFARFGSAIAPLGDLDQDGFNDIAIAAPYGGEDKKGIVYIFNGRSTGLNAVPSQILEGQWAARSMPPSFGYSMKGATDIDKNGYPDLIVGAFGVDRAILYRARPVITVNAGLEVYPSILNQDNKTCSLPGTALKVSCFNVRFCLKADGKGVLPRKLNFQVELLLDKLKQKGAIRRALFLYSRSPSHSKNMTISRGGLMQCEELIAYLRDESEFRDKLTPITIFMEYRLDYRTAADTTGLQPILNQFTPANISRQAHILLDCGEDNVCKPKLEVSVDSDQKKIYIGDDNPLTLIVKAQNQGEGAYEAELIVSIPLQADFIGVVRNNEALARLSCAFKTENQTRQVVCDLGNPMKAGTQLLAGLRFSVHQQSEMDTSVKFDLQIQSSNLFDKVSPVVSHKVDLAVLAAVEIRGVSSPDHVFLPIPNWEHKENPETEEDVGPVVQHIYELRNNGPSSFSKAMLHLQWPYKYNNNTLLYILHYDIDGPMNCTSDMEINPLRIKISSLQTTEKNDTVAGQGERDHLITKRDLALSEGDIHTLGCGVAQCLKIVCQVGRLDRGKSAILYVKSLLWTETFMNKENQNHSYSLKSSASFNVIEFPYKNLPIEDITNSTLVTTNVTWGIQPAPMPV
T1 sequence (P18564 22-707 limits assumed): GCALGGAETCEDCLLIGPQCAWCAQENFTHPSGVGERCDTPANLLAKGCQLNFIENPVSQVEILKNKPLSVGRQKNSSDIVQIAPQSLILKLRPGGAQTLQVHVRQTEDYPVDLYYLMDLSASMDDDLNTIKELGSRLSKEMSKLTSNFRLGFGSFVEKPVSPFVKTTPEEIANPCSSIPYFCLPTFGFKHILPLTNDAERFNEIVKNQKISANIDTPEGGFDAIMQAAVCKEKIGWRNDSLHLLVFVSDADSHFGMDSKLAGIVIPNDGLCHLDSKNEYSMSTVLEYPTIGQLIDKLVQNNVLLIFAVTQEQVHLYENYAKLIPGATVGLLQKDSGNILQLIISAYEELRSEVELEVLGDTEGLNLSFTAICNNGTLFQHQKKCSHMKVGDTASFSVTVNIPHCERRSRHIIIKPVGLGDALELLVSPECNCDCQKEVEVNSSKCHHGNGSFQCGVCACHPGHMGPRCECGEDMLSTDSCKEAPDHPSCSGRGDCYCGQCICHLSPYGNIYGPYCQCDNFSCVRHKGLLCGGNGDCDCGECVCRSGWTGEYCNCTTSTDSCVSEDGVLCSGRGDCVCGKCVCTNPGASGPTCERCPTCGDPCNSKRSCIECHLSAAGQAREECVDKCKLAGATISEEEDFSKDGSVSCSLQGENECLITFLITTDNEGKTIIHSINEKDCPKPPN
Description: human αVβ6 HTRF binding assay. To be noted: recombinant human αVβ6 integrin, FITC-conjugated fibronectin. As to the method:
All binding assays used the HTRF (homogeneous time resolved fluorescence) technology from Cisbio International, therefore all assays are described as HTRF binding assays. The assay results for the Examples are listed above together with the characterization data. The HTRF binding assays are established for the following integrins: human αVβ6, human αVβ1, human αVβ3, human αVβ5, and human αVβ8. All assays used the following assay buffer: 20 mM Tris, pH 7.4, 1 mM MgCl2, 1 mM MnCl2, 0.01% Tween 20, and 0.01% BSA. Alternatively, a SPA-based assay was used for evaluation of receptor binding.
The following describes the components and a representative procedure for the human αVβ6 HTRF binding assay: Recombinant human αVβ6 Integrin (R & D systems, 3817-AV) was biotinylated. Biotinylated human αVβ6 Integrin was added to assay vessel at a final concentration of 1.25 nM. FITC-conjugated fibronectin (Cytoskeleton, FNR02) was then added at the final concentration of 5 nM. The mixture was centrifuged at 600 rpm for three minutes using Thermo Fisher Heraeus Multifuge X3 centrifuge and then incubated at room temperature for an hour. Streptavidin Terbium (Cisbio international 610STLB) was then added at the final concentration of 0.625 nM. The resulting mixture was centrifuged at 600 rpm for three minutes using Thermo Fisher Heraeus Multifuge X3 centrifuge and then incubated at room temperature overnight in dark before reading HTRF signals. […]
Take `O=C(O)CC(c1cc(Cl)cc(Cl)c1)n1ncc2cc(OCCc3ccc4c(n3)NCCC4)ccc21` (stereo not shown) [Example 43, 3-(3,5-Dichlorophenyl)-3-(5-(2-(5,6,7,8-tetrahydro-1,8-naphthyridin-2-yl)ethoxy)-1H-indazol-1-yl)propanoic acid, TFA]: the IC50 was determined as 0.0032 µM.

As for `COc1ccc(C(CC(=O)O)n2ncc3cc(OCCc4ccc5c(n4)NCCC5)ccc32)cc1F` (stereo not shown) [Example 44, 3-(3-Fluoro-4-methoxyphenyl)-3-(5-(2-(5,6,7,8-tetrahydro-1,8-naphthyridin-2-yl)ethoxy)-1H-indazol-1-yl)propanoic acid, TFA], the IC50 is 0.00871 µM.

As for `O=C(O)CC(C1CC1)n1ncc2cc(OCCc3ccc4c(n3)NCCC4)ccc21` (stereo not shown) [Example 45, 3-Cyclopropyl-3-(5-(2-(5,6,7,8-tetrahydro-1,8-naphthyridin-2-yl)ethoxy)-1H-indazol-1-yl)propanoic acid, TFA], the 50% inhibitory concentration (IC50) was 2.3 µM.

For `CCCCCC(CC(=O)O)n1ncc2cc(OCCc3ccc4c(n3)NCCC4)ccc21` (stereo not shown) [Example 46, 3-(5-(2-(5,6,7,8-Tetrahydro-1,8-naphthyridin-2-yl)ethoxy)-1H-indazol-1-yl)octanoic acid, TFA], the IC50 was 0.33 µM.

Consider `O=C(O)CC(c1ccc2c(c1)CCO2)n1ncc2cc(OCCc3ccc4c(n3)NCCC4)ccc21` (stereo not shown) [Example 47, 3-(2,3-Dihydrobenzofuran-5-yl)-3-(5-(2-(5,6,7,8-tetrahydro-1,8-naphthyridin-2-yl)ethoxy)-1H-indazol-1-yl)propanoic acid, TFA], for which the IC50 stood at 0.007 µM.

Turning to `O=C(O)CC(c1cccs1)n1ncc2cc(OCCc3ccc4c(n3)NCCC4)ccc21` (stereo not shown) [Example 49, 3-(5-(2-(5,6,7,8-Tetrahydro-1,8-naphthyridin-2-yl)ethoxy)-1H-indazol-1-yl)-3-(thiophen-2-yl)propanoic acid, TFA], the 50% inhibitory concentration (IC50) was found to be 0.033 µM.

Turning to `O=C(O)CC(c1cccnc1)n1ncc2cc(OCCc3ccc4c(n3)NCCC4)ccc21` (stereo not shown) [Example 50, 3-(Pyridin-3-yl)-3-(5-(2-(5,6,7,8-tetrahydro-1,8-naphthyridin-2-yl)ethoxy)-1H-indazol-1-yl)propanoic acid, TFA], the 50% inhibitory concentration (IC50) stood at 0.08 µM.

For the compound `O=C(O)CCn1ncc2cc(OCCc3ccc4c(n3)NCCC4)ccc21` [Example 51, 3-(5-(2-(5,6,7,8-Tetrahydro-1,8-naphthyridin-2-yl)ethoxy)-1H-indazol-1-yl)propanoic acid], the concentration for half-maximal inhibition (IC50) stood at 2.5 µM.

In the case of `O=C(O)CC(c1ccc(F)cn1)n1ncc2cc(OCCc3ccc4c(n3)NCCC4)ccc21` (stereo not shown) [Example 53, 3-(5-Fluoropyridin-2-yl)-3-(5-(2-(5,6,7,8-tetrahydro-1,8-naphthyridin-2-yl)ethoxy)-1H-indazol-1-yl)propanoic acid, TFA], the half-maximal inhibitory concentration (IC50) worked out at 0.15 µM.

As to `O=C(O)CC(c1ccc2oc3ccccc3c2c1)n1ncc2cc(OCCc3ccc4c(n3)NCCC4)ccc21` (stereo not shown) [Example 54, 3-(Dibenzo[b,d]furan-2-yl)-3-(5-(2-(5,6,7,8-tetrahydro-1,8-naphthyridin-2-yl)ethoxy)-1H-indazol-1-yl)propanoic acid, TFA], the IC50 was 0.03 µM.

For the compound `Cc1cc(C)nc(C(CC(=O)O)n2ncc3cc(OCCc4ccc5c(n4)NCCC5)ccc32)n1` (stereo not shown) [Example 55, 3-(4,6-Dimethylpyrimidin-2-yl)-3-(5-(2-(5,6,7,8-tetrahydro-1,8-naphthyridin-2-yl)ethoxy)-1H-indazol-1-yl)propanoic acid, TFA], the IC50 was found to be 0.92 µM.

As for `Cc1nc2cc(C(CC(=O)O)n3ncc4cc(OCCc5ccc6c(n5)NCCC6)ccc43)ccc2s1` (stereo not shown) [Example 56, 3-(2-Methylbenzo[d]thiazol-5-yl)-3-(5-(2-(5,6,7,8-tetrahydro-1,8-naphthyridin-2-yl)ethoxy)-1H-indazol-1-yl)propanoic acid, TFA], the IC50 came to 0.0041 µM.

Regarding `O=C(O)CC(c1ccc(Oc2ccccc2)cc1)n1ncc2cc(OCCc3ccc4c(n3)NCCC4)ccc21` (stereo not shown) [Example 57, 3-(4-Phenoxyphenyl)-3-(5-(2-(5,6,7,8-tetrahydro-1,8-naphthyridin-2-yl)ethoxy)-1H-indazol-1-yl)propanoic acid, TFA], the IC50 came out at 0.011 µM.

Consider `O=C(O)CC(c1cccc(N2CCOCC2)c1)n1ncc2cc(OCCc3ccc4c(n3)NCCC4)ccc21` (stereo not shown) [Example 58, 3-(3-Morpholinophenyl)-3-(5-(2-(5,6,7,8-tetrahydro-1,8-naphthyridin-2-yl)ethoxy)-1H-indazol-1-yl)propanoic acid, TFA], for which the IC50 was found to be 0.0017 µM.

Turning to `O=C(O)CC(c1cccc(-n2cccc2)c1)n1ncc2cc(OCCc3ccc4c(n3)NCCC4)ccc21` (stereo not shown) [Example 59, 3-(3-(1H-Pyrrol-1-yl)phenyl)-3-(5-(2-(5,6,7,8-tetrahydro-1,8-naphthyridin-2-yl)ethoxy)-1H-indazol-1-yl)propanoic acid, TFA], the IC50 amounted to 0.0012 µM.

On to `CN(C)Cc1cccc(C(CC(=O)O)n2ncc3cc(OCCc4ccc5c(n4)NCCC5)ccc32)c1` (stereo not shown) [Example 60, 3-(3-((Dimethylamino)methyl)phenyl)-3-(5-(2-(5,6,7,8-tetrahydro-1,8-naphthyridin-2-yl)ethoxy)-1H-indazol-1-yl)propanoic acid, TFA], for which the IC50 was 0.0051 µM.

For the compound `O=C(O)CC(c1ccccn1)n1ncc2cc(OCCc3ccc4c(n3)NCCC4)ccc21` (stereo not shown) [Example 61, 3-(Pyridin-2-yl)-3-(5-(2-(5,6,7,8-tetrahydro-1,8-naphthyridin-2-yl)ethoxy)-1H-indazol-1-yl)propanoic acid, TFA], the IC50 came out at 0.08 µM.

On to `O=C(O)CC(c1cccc(N2CCCC2=O)c1)n1ncc2cc(OCCc3ccc4c(n3)NCCC4)ccc21` (stereo not shown) [Example 62, 3-(3-(2-Oxopyrrolidin-1-yl)phenyl)-3-(5-(2-(5,6,7,8-tetrahydro-1,8-naphthyridin-2-yl)ethoxy)-1H-indazol-1-yl)propanoic acid, TFA], for which the concentration for half-maximal inhibition (IC50) stood at 0.037 µM.

As for `CCCn1cc(C(CC(=O)O)n2ncc3cc(OCCc4ccc5c(n4)NCCC5)ccc32)cn1` (stereo not shown) [Example 63, 3-(1-Propylpyrazol-4-yl)-3-(5-(2-(5,6,7,8-tetrahydro-1,8-naphthyridin-2-yl)ethoxy)-1H-indazol-1-yl)propanoic acid, TFA], the IC50 worked out at 0.055 µM.

For the compound `COc1ccc([C@H](CC(=O)O)n2cc3cc(CCc4ccc5c(n4)NCCC5)ccc3n2)cn1` [Example 64, (S)-3-(6-Methoxypyridin-3-yl)-3-(5-(2-(5,6,7,8-tetrahydro-1,8-naphthyridin-2-yl)ethyl)-2H-indazol-2-yl)propanoic acid], the concentration for half-maximal inhibition (IC50) is 0.019 µM.

`COc1ccc([C@H](CC(=O)O)n2cc3cc(CCCc4ccc5c(n4)NCCC5)ccc3n2)cn1` [Example 67, (S)-3-(6-Methoxypyridin-3-yl)-3-(5-(3-(5,6,7,8-tetrahydro-1,8-naphthyridin-2-yl)propyl)-2H-indazol-2-yl)propanoic acid]: the IC50 came out at 0.74 µM.

For the compound `Cc1cc(C)n(-c2cccc(C(CC(=O)O)n3ncc4cc(OCCc5ccc6c(n5)NCCC6)ccc43)c2)n1` (stereo not shown) [Example 68, 3-(3-(3,5-Dimethylpyrazol-1-yl)phenyl)-3-(5-(2-(5,6,7,8-tetrahydro-1,8-naphthyridin-2-yl)ethoxy)-1H-indazol-1-yl)propanoic acid, TFA], the IC50 came to 0.0015 µM.

Take `O=C(O)CC(Cc1ccc(OCc2ccccc2)cc1)n1ncc2cc(OCCc3ccc4c(n3)NCCC4)ccc21` (stereo not shown) [Example 69, 4-(4-(Benzyloxy)phenyl)-3-(5-(2-(5,6,7,8-tetrahydro-1,8-naphthyridin-2-yl)ethoxy)-1H-indazol-1-yl)butanoic acid, TFA]: the half-maximal inhibitory concentration (IC50) was determined as 0.4 µM.

`COc1ccc(C(CC(=O)O)n2nc(C)c3cc(OCCc4ccc5c(n4)NCCC5)ccc32)cn1` (stereo not shown) [Example 70, 3-(6-Methoxypyridin-3-yl)-3-(3-methyl-5-(2-(5,6,7,8-tetrahydro-1,8-naphthyridin-2-yl)ethoxy)-1H-indazol-1-yl)propanoic acid]: the IC50 came to 0.953 µM.

Take `Cn1ccc(C(CC(=O)O)n2ncc3cc(OCCc4ccc5c(n4)NCCC5)ccc32)cc1=O` (stereo not shown) [Example 71, 3-(1-Methyl-2-oxo-1,2-dihydropyridin-4-yl)-3-(5-(2-(5,6,7,8-tetrahydro-1,8-naphthyridin-2-yl)ethoxy)-1H-indazol-1-yl)propanoic acid, TFA]: the IC50 stood at 0.064 µM.

On to `O=C(O)C(CCc1ccccc1)Cn1ncc2cc(OCCc3ccc4c(n3)NCCC4)ccc21` (stereo not shown) [Example 73, 4-Phenyl-2-((5-(2-(5,6,7,8-tetrahydro-1,8-naphthyridin-2-yl)ethoxy)-1H-indazol-1-yl)methyl)butanoic acid], for which the half-inhibitory concentration (IC50) amounted to 1.8 µM.

With `CC(C)(C)OC(=O)N1CCC(C(CC(=O)O)n2ncc3cc(OCCc4ccc5c(n4)NCCC5)ccc32)CC1` (stereo not shown) [Example 74, 3-(1-(tert-Butoxycarbonyl)piperidin-4-yl)-3-(5-(2-(5,6,7,8-tetrahydro-1,8-naphthyridin-2-yl)ethoxy)-1H-indazol-1-yl)propanoic acid], the IC50 stood at 0.26 µM.

Regarding `O=C(O)CC(c1ccncc1)n1ncc2cc(OCCc3ccc4c(n3)NCCC4)ccc21` (stereo not shown) [Example 75, 3-(Pyridin-4-yl)-3-(5-(2-(5,6,7,8-tetrahydro-1,8-naphthyridin-2-yl)ethoxy)-1H-indazol-1-yl)propanoic acid, 2 TFA], the IC50 amounted to 0.023 µM.
